Measured values as given in doi:10.1101/2023.12.06.570349v1 (biorxiv, 2023).
Where two headings read alike, the source gives them in different places.

How the values were obtained:
H3R-453 [1] = target: T1, H3R-453 (Homo sapiens, UniProt Q9Y5N1); design: species or system HEK293-EPAC stably expressing H3R isoform; conditions: agonist
H3R-373 [2] = target: T2, H3R-373 (Homo sapiens, UniProt Q9Y5N1, INS445KMKKKTCL); test: cell-based; design: species or system HEK293-EPAC stably expressing H3R isoform; conditions: for Emax: HEK293-EPAC stably expressing H3R isoform, read-out: H3R-373 α; for H3R-373 α: relative to histamine, agonist
H3R-365 [3] = target: T3, H3R-365 (Homo sapiens, UniProt Q9Y5N1); test: cell-based; design: species or system HEK293-EPAC stably expressing H3R isoform; conditions: for Emax: HEK293-EPAC stably expressing H3R isoform, read-out: H3R-365 α; for H3R-365 α: relative to histamine, agonist
H3R-413 [4] = target: T4, H3R-413 (Homo sapiens, UniProt Q9Y5N1, DEL274-305); test: biochemical
H3R-415 [5] = target: T5, H3R-415 (Homo sapiens, UniProt Q9Y5N1); test: cell-based; design: species or system HEK293-EPAC stably expressing H3R isoform; conditions: for Emax: HEK293-EPAC stably expressing H3R isoform, read-out: H3R-415 α; for H3R-415 α: relative to histamine, agonist
H3R-445 [6] = target: T6, H3R-445 (Homo sapiens, UniProt Q9Y5N1); test: cell-based; design: species or system HEK293-EPAC stably expressing H3R isoform
H3R-373 [7] = target: T2, H3R-373
H3R-453 [8] = target: T1, H3R-453; test: cell-based; design: species or system HEK293-EPAC stably expressing H3R isoform; conditions: for Emax: HEK293-EPAC stably expressing H3R isoform, read-out: H3R-453 α; for H3R-453 α: relative to histamine, agonist
H3R-445 [9] = target: T6, H3R-445; test: cell-based; design: species or system HEK293-EPAC stably expressing H3R isoform; conditions: for Emax: HEK293-EPAC stably expressing H3R isoform, read-out: H3R-445 α; for H3R-445 α: relative to histamine, agonist
H3R-413 [10] = target: T4, H3R-413; test: cell-based; design: species or system HEK293-EPAC stably expressing H3R isoform; conditions: for Emax: HEK293-EPAC stably expressing H3R isoform, read-out: H3R-413 α; for H3R-413 α: relative to histamine, agonist
H3R-413 [11] = target: T4, H3R-413; test: cell-based; design: species or system HEK293-EPAC stably expressing H3R isoform
H3R-415 [12] = target: T5, H3R-415; test: biochemical
H3R-445 [13] = target: T6, H3R-445; test: biochemical
H3R-373 [14] = target: T2, H3R-373; design: species or system HEK293-EPAC stably expressing H3R isoform; conditions: agonist
H3R-365 [15] = target: T3, H3R-365; test: biochemical
H3R-453 [16] = target: T1, H3R-453; test: cell-based; conditions: HEK293-EPAC stably expressing H3R isoform, read-out: H3R-453 α
H3R-365 [17] = target: T3, H3R-365; test: cell-based; conditions: HEK293-EPAC stably expressing H3R isoform, read-out: H3R-365 α
H3R-445 [18] = target: T6, H3R-445; test: cell-based; conditions: HEK293-EPAC stably expressing H3R isoform, read-out: H3R-445 α
H3R-415 [19] = target: T5, H3R-415; test: cell-based; conditions: HEK293-EPAC stably expressing H3R isoform, read-out: H3R-415 α
H3R-445 [20] = target: T6, H3R-445; test: cell-based; design: species or system HEK293-EPAC stably expressing H3R isoform; conditions: for Emax: HEK293-EPAC stably expressing H3R isoform, read-out: H3R-445 α
H3R-415 [21] = target: T5, H3R-415; test: cell-based; design: species or system HEK293-EPAC stably expressing H3R isoform; conditions: for Emax: HEK293-EPAC stably expressing H3R isoform, read-out: H3R-415 α
H3R-365 [22] = target: T3, H3R-365; test: cell-based; design: species or system HEK293-EPAC stably expressing H3R isoform; conditions: for Emax: HEK293-EPAC stably expressing H3R isoform, read-out: H3R-365 α
H3R-365 [23] = target: T3, H3R-365; test: cell-based; design: species or system HEK293-EPAC stably expressing H3R isoform
H3R-373 [24] = target: T2, H3R-373; design: species or system HEK293-EPAC stably expressing H3R isoform; conditions: inverse agonism, constitutive signaling; antagonist
H3R-415 [25] = target: T5, H3R-415; test: cell-based; design: species or system HEK293-EPAC stably expressing H3R isoform
H3R-415 [26] = target: T5, H3R-415; test: cell-based; design: species or system HEK293-EPAC stably expressing H3R isoform; remark: listed apart in the source
H3R-445 [27] = target: T6, H3R-445; test: cell-based; design: species or system HEK293-EPAC stably expressing H3R isoform; remark: listed apart in the source
[28] = inverse agonism, pitolisant = -1, antagonist

## CCCNC1CN(c2ccnc(N)n2)C1 [VUF16839, 4-(3-(Propylamino)azetidin-1-yl)pyrimidin-2-amine]
H3R-453 [1]
  H3R-453 pEC50: 8.0 ± 0.1 M
H3R-373 [2]
  Emax: 60 ± 20%
H3R-365 [3]
  Emax: 70 ± 20%
H3R-413 [4]
  Ki: 2 nM
H3R-415 [5]
  Emax: 50 ± 10%
H3R-445 [6]
  EC50: 1 nM
H3R-373 [7]
  Ki: 0.398 nM
H3R-453 [8]
  Emax: 90 ± 30%
H3R-445 [9]
  Emax: 90%
H3R-413 [10]
  Emax: 80 ± 20%

## CN(C)CCCCCc1c[nH]cn1 [dimethyl-impentamine, 5-(3H-imidazol-4-yl)-N,N-dimethylpentan-1-amine]
H3R-373 [2]
  Emax: 70 ± 10%
H3R-365 [3]
  Emax: 100 ± 20%
H3R-413 [4]
  Ki: 31.6 nM
H3R-415 [5]
  Emax: 40 ± 10%
H3R-413 [11]
  EC50: 79.4 nM
H3R-415 [12]
  Ki: 31.6 nM
H3R-373 [7]
  Ki: 20 nM
H3R-445 [9]
  Emax: 60 ± 20%
H3R-445 [13]
  Ki: 25.1 nM
H3R-373 [14]
  H3R-373 pEC50: 7.9 ± 0.4 M
H3R-365 [15]
  Ki: 20 nM
H3R-413 [10]
  Emax: 50 ± 20%

## c1nc(CC2CCNCC2)c[nH]1 [Immepip]
H3R-373 [2]
  H3R-373 α: 0.8 ± 0.2%
H3R-365 [3]
  H3R-365 α: 1.1 ± 0.1%
H3R-415 [5]
  H3R-415 α: 0.9 ± 0.1%
H3R-413 [11]
  EC50: 0.2 nM
H3R-453 [8]
  H3R-453 α: 0.9 ± 0.1%
H3R-445 [9]
  H3R-445 α: 1.0 ± 0.0%
H3R-373 [14]
  H3R-373 pEC50: 10.1 ± 0.2 M
H3R-413 [10]
  H3R-413 α: 1.0 ± 0.0%

## C[C@@H](N)Cc1cnc[nH]1 [RAMH, (2R)-1-(3H-imidazol-4-yl)propan-2-amine]
H3R-453 [16]
  Emax: 140 ± 10%
H3R-365 [17]
  Emax: 100 ± 20%
H3R-445 [18]
  Emax: 100%
H3R-415 [19]
  Emax: 110 ± 40%

## N=C(N)SCCc1cnc[nH]1 [imetit, 2-(3H-imidazol-4-yl)ethylsulfanylmethanimidamide]
H3R-373 [2]
  Emax: 80 ± 30%
H3R-365 [3]
  Emax: 110 ± 20%
H3R-413 [4]
  Ki: 0.631 nM
H3R-415 [5]
  Emax: 70%
H3R-413 [11]
  EC50: 0.316 nM
H3R-373 [7]
  Ki: 0.126 nM
H3R-453 [8]
  Emax: 100 ± 30%
H3R-445 [9]
  Emax: 90 ± 10%
H3R-413 [10]
  Emax: 100%

## N=C(NCc1ccc(Cl)cc1)SCCCc1c[nH]cn1 [clobenpropit, N’-[(4-chlorophenyl)methyl]-1-[3-(3H-imidazol-4-yl)propylsulfanyl]methanimidamide]
H3R-445 [20]
  Emax: -100 ± 30%
H3R-415 [21]
  Emax: -80%
H3R-365 [22]
  Emax: -80 ± 10%

## c1cc(Cc2cnc[nH]2)ccn1 [immethridine, 4-(3H-imidazol-4-ylmethyl)pyridine]
H3R-373 [2]
  Emax: 90 ± 10%
H3R-365 [3]
  Emax: 110 ± 50%
H3R-413 [4]
  Ki: 0.398 nM
H3R-415 [5]
  Emax: 70 ± 10%
H3R-373 [7]
  Ki: 0.1 nM
H3R-453 [8]
  Emax: 110 ± 40%
H3R-445 [9]
  Emax: 90 ± 20%
H3R-373 [14]
  H3R-373 pEC50: 10.1 ± 0.7 M
H3R-413 [10]
  Emax: 100 ± 10%

## S=C(NC1CCCCC1)N1CCC(c2c[nH]cn2)CC1 [thioperamide, N-cyclohexyl-4-(3H-imidazol-4-yl)piperidine-1-carbothioamide]
H3R-445 [20]
  Emax: -90 ± 10%
H3R-415 [21]
  Emax: -80 ± 80%
H3R-365 [22]
  Emax: -100%

## C[C@@H]1CCCN1CCc1cc2cc(-c3ccc(C#N)cc3)ccc2o1 [ABT-239, 4-[2-[2-[(2R)-2-methylpyrrolidin-1-yl]ethyl]-1-benzofuran-5-yl]benzonitrile]
H3R-445 [20]
  Emax: -100 ± 20%
H3R-415 [21]
  Emax: -50 ± 30%
H3R-365 [22]
  Emax: -110%

## CCNC(=O)C1CC(F)(c2ccc(CN3CCCC3)c(F)c2)C1 (stereo not shown) [PF-3654746, N-ethyl-3-fluoro-3-[3-fluoro-4-(pyrrolidin-1-ylmethyl)phenyl]cyclobutane-1-carboxamide]
H3R-445 [20]
  Emax: -120 ± 40%
H3R-413 [4]
  Ki: 5.01 nM
H3R-415 [21]
  Emax: -110 ± 30%
H3R-365 [23]
  EC50: 1 nM
H3R-365 [22]
  Emax: -100 ± 10%
H3R-373 [7]
  Ki: 126 nM
H3R-373 [24]
  H3R-373 pEC50: 9.1 ± 0.4 M
H3R-415 [25]
  EC50: 0.501 nM

## c1ccc(COCCCc2c[nH]cn2)cc1 [proxyfan, 4-[3-(phenylmethoxy)propyl]-3H-imidazole]
H3R-453 [1]
  H3R-453 pEC50: 7.2 ± 0.4 M
H3R-373 [2]
  Emax: 80 ± 10%
H3R-365 [3]
  Emax: 100 ± 10%
H3R-413 [4]
  Ki: 5.01 nM
H3R-415 [5]
  Emax: 70 ± 10%
H3R-413 [11]
  EC50: 31.6 nM
H3R-445 [6]
  EC50: 7.94 nM
H3R-415 [26]
  EC50: 15.8 nM
H3R-373 [7]
  Ki: 1 nM
H3R-453 [8]
  Emax: 100 ± 20%
H3R-445 [9]
  Emax: 90 ± 10%
H3R-373 [14]
  H3R-373 pEC50: 8.0 ± 0.0 M
H3R-413 [10]
  Emax: 90 ± 10%

## NCCCCc1c[nH]cn1 [imbutamine, 4-(3H-imidazol-4-yl)butan-1-amine]
H3R-373 [2]
  Emax: 80 ± 10%
H3R-365 [3]
  Emax: 90 ± 30%
H3R-413 [4]
  Ki: 1.58 nM
H3R-415 [5]
  Emax: 80 ± 10%
H3R-373 [7]
  Ki: 0.398 nM
H3R-453 [8]
  Emax: 120 ± 30%
H3R-445 [9]
  Emax: 100 ± 10%
H3R-373 [14]
  H3R-373 pEC50: 9.5 ± 0.4 M
H3R-413 [10]
  Emax: 90%

## CN1CCC(Cc2c[nH]cn2)CC1 [Methimepip]
H3R-373 [2]
  H3R-373 α: 0.8 ± 0.1%
H3R-365 [3]
  H3R-365 α: 0.8 ± 0.4%
H3R-415 [5]
  H3R-415 α: 0.8 ± 0.1%
H3R-413 [11]
  EC50: 0.631 nM
H3R-453 [8]
  H3R-453 α: 1.1 ± 0.2%
H3R-445 [9]
  H3R-445 α: 1.0 ± 0.2%
H3R-413 [10]
  H3R-413 α: 1.0 ± 0.1%

## N=C(N)SCCCc1cnc[nH]1 [VUF8328, 3-(1H-imidazol-5-yl)propyl carbamimidothioate]
H3R-373 [2]
  Emax: 70 ± 30%
H3R-365 [3]
  Emax: 70 ± 20%
H3R-413 [4]
  Ki: 1.26 nM
H3R-415 [5]
  Emax: 50 ± 20%
H3R-415 [12]
  Ki: 1.58 nM
H3R-373 [7]
  Ki: 0.316 nM
H3R-453 [8]
  Emax: 90 ± 40%
H3R-445 [9]
  Emax: 80 ± 20%
H3R-445 [13]
  Ki: 1.26 nM
H3R-373 [14]
  H3R-373 pEC50: 9.0 ± 0.8 M
H3R-365 [15]
  Ki: 0.794 nM
H3R-413 [10]
  Emax: 80 ± 10%

## O=C(c1ccc(CN2CCOCC2)cc1)N1CCN(C2CC2)CC1 [bavisant, (4-Cyclopropyl-piperazin-1-yl)-(4-morpholin-4-ylmethyl-phenyl)-methanone]
H3R-445 [20]; [28]
  H3R-445 α: -1.0 ± 0,3%
H3R-413 [4]
  Ki: 2.51 nM
H3R-415 [21]; [28]
  H3R-415 α: -0.9 ± 0.0%
H3R-365 [23]
  EC50: 3.98 nM
H3R-365 [22]; [28]
  H3R-365 α: -1.0 ± 0.0%
H3R-445 [27]
  EC50: 1 nM
H3R-373 [7]
  Ki: 79.4 nM
H3R-415 [25]
  EC50: 0.794 nM
